{
  "source": "patent US20040006100A1",
  "about": "“Monotherapy for the treatment of parkinson's disease with cyclooxygenase-2 (COX 2) inhibitor(S)” (priority 2002, published 2004)",
  "origin": "cited, not measured here",
  "data": [
    {"smiles": "N[C@@H](Cc1ccc(O)c(O)c1)C(=O)O", "note": "[levodopa]", "values": [
      {"measurement": "fraction of levodopa that reaches the brain", "setting": "levodopa alone administered orally", "value": "about 1%"},
      {"measurement": "fraction of orally administered levodopa metabolized by decarboxylase and then unable to cross the BBB", "setting": "oral administration, without carbidopa", "value": "Up to 99%"}
    ]}
  ]
}
